This is an account of results in ChEMBL document CHEMBL3714738, “Novel indole, indazole and benzimidazole arylamides as p2x3 and/or p2x2/3 antagonists” (2012).

The target in one assay is T1, P2X purinoceptor 3 (Rattus norvegicus, UniProt P49654).
T1 sequence (P49654 whole entry): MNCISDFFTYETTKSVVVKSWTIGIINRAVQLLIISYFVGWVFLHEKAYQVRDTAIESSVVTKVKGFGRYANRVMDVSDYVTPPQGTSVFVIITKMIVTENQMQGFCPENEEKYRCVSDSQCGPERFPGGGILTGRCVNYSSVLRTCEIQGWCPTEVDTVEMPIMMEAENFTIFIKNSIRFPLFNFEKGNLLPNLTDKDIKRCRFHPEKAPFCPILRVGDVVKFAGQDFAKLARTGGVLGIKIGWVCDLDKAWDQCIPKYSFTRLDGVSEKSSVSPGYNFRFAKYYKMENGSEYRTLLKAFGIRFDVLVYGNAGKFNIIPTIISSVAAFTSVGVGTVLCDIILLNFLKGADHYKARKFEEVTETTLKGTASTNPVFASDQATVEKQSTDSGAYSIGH
In words: Antagonist activity against rat P2X3 receptor expressed in CHOK1 cells assessed as inhibition of alpha,beta-meATP-induced calcium response incubated for 20 mins by Fluo-3AM dye based FLIPR assay. It counts as functional, cell-based, CHO-K1.

Assay [1] deals with T2, P2X2/P2X3 heterotrimeric receptor (Homo sapiens, UniProt P56373+Q9UBL9).
T2 sequence (Q9UBL9 whole entry): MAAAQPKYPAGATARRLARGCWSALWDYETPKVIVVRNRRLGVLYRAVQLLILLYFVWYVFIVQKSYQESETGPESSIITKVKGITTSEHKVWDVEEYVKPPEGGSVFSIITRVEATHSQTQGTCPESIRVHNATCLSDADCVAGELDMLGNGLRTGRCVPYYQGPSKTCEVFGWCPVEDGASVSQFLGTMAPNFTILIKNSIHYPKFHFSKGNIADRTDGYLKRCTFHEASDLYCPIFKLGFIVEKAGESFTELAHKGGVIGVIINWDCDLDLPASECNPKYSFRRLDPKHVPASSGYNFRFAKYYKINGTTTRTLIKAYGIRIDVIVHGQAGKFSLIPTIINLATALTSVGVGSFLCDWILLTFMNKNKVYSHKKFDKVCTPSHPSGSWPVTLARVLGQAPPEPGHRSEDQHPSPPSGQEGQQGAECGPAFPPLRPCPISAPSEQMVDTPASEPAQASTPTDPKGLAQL
T2 sequence (P56373 whole entry): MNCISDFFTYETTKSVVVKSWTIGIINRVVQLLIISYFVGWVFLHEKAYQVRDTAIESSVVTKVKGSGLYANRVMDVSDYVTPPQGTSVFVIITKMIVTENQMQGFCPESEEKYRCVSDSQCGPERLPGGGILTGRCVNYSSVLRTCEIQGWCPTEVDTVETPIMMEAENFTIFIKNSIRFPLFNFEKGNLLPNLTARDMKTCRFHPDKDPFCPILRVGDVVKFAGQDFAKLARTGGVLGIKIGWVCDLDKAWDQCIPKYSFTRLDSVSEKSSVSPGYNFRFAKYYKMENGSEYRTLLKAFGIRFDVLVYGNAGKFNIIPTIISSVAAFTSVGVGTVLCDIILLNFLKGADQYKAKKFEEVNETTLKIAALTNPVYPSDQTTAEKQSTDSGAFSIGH
In words: Antagonist activity against human P2X2/3 receptor expressed in CHOK1 cells assessed as inhibition of alpha,beta-meATP-induced calcium response incubated for 20 mins by Fluo-3AM dye based FLIPR assay. It counts as functional, cell-based, CHO-K1.

A word on the Ki: it is a dissociation constant, usually derived from enzyme kinetics or from competition with a known ligand.

For the molecule `Cc1ccc(-c2cc(C(=O)N[C@@H](C)CO)cc3c2ccn3-c2ccccc2)nc1`, the Ki on P2X purinoceptor 3 was 102 nM; in assay [1], 2880 nM.

Turning to `Cc1ccc(-c2cc(C(=O)NCc3cnc(C)cn3)cc3c2ccn3-c2ccccc2)nc1`, the Ki on P2X purinoceptor 3 is 18.6 nM; in assay [1], 457 nM.

In the case of `Cc1ccc(-c2cc(C(=O)N[C@@H](C)CO)cc3c2cnn3CC(C)C)nc1`, the Ki at P2X purinoceptor 3 is 288 nM; in assay [1], 7240 nM.
